# Source: patent US4436751A, “Nitrobenzyl monates antibacterial compounds” (Beecham Group Limited, priority 1980, dated 1984)
# Where two headings read alike, the source gives them in different places.
# Tests used:
# Format in all cases: cell-based
# M. suipneumoniae TAM 6N = test: Anti-mycoplasmal MIC in vitro, Friis broth agarose (Table 1); conditions: Mesomycoplasma hyopneumoniae, TAM6N, 144 h
# E. coli ESS = test: Human bacteria MIC, nutrient agar with chocolated horse blood (Table 3); conditions: Escherichia coli
# Description: (§1) The values were determined by serial dilutions in nutrient agar with 5% chocolated horse blood after incubations for 18 hours at 37° C.
# Strep. pneumoniae CN33 = test: as above; conditions: Streptococcus pneumoniae
# Description: as §1
# Strep. 2733-B = test: as above
# Description: as §1
# [1] = tested on: Neisseria catarrhalis 1502; test: as above
# Description: as §1
# Strep. 641848-C = test: as above
# Description: as §1
# [2] = tested on: M. suipneumoniae PW/C/210; test: Anti-mycoplasmal MIC in vitro, Friis broth agarose (Table 1); conditions: Mesomycoplasma hyopneumoniae, 144 h
# Staph. aureus 152 = test: Veterinary bacteria MIC, Diagnostic Sensitivity Test Agar (Table 2)
# Description: (§2) The values were determined using a two fold serial dilutions in Diagnostic Sensitivity Test Agar with an inoculum of 10^4 organisms and incubation for 18 hours at 37° C.
# S. typhimurium S18 = test: as above; conditions: Salmonella enterica
# Description: as §2
# S. dublin S7 = test: as above; conditions: Salmonella enterica
# Description: as §2
# E. Coli NCTC 10418 = test: as above; conditions: Escherichia coli
# Description: as §2
# Staph. aureus Oxford = test: as above; conditions: Staphylococcus aureus
# Description: as §2
# Strep. dylgalactiae SPD1 = test: as above
# Description: as §2
# Strep. agalactiae SPA1 = test: as above; conditions: Streptococcus agalactiae
# Description: as §2
# Past. multocida PA2 = test: as above; conditions: Pasteurella multocida
# Description: as §2
# Strep. uberis SPO1 = test: as above; conditions: Streptococcus uberis
# Description: as §2
# [3] = tested on: Corynebacterium pyogenes CY1; test: as above; conditions: Trueperella pyogenes
# Description: as §2
# Past. haemolytica PA5 = test: as above; conditions: Mannheimia haemolytica
# Description: as §2
# [4] = tested on: Erysipelothrix rhusiopathiae NCTC 8163; test: as above
# Description: as §2
# [5] = tested on: Strep. suis (group D) SPS11; test: as above; conditions: Streptococcus suis
# Description: as §2
# E. Coli E1 = test: as above; conditions: Escherichia coli
# Description: as §2
# Past. multocida PA1 = test: as above; conditions: Pasteurella multocida
# Description: as §2
# Bord. bronchiseptica BO8 = test: as above; conditions: Bordetella bronchiseptica
# Description: as §2
# Bord. bronchiseptica BO9 = test: as above; conditions: Bordetella bronchiseptica
# Description: as §2
# Staph. aureus B4 = test: as above; conditions: Staphylococcus aureus
# Description: as §2
# [6] = tested on: M. suipneumoniae NCTC 10110; test: Anti-mycoplasmal MIC in vitro, Friis broth agarose (Table 1); conditions: Mesomycoplasma hyopneumoniae, NCTC10110, 144 h
# [7] = tested on: M. bovigenitalium ATOC 14173; test: as above; conditions: 144 h
# M. bovis RCTC 10131 = test: microbe, parasite or virus in culture; conditions: RCTC10131, 144 h
# [8] = Staphylococcus aureus, 152, 18 h
# [9] = Erysipelothrix rhusiopathiae, NCTC8163, 18 h
structure (smiles),measurement,setting,value
"C/C(=C\C(=O)OC(C)c1ccc([N+](=O)[O-])cc1)CC1OCC(CC2OC2C(C)C(C)O)C(O)C1O (stereo not drawn) [Example 4, 1-(p-nitrophenyl)ethyl monate A]",MIC,"M. suipneumoniae TAM 6N; M. suipneumoniae TAM 6N, in vitro, 6 days 37° C., read-out: MIC",2.5 µg/mL
same,MIC,"E. coli ESS; E. coli ESS, nutrient agar 5% chocolated horse blood, 18 hours 37° C., read-out: MIC",2.5 µg/mL
same,MIC,"Strep. pneumoniae CN33; Strep. pneumoniae CN33, nutrient agar 5% chocolated horse blood, 18 hours 37° C., read-out: MIC",1 µg/mL
same,MIC,"Strep. 2733-B; Strep. 2733-B, nutrient agar 5% chocolated horse blood, 18 hours 37° C., read-out: MIC",1 µg/mL
same,MIC,"[1]; Neisseria catarrhalis 1502, nutrient agar 5% chocolated horse blood, 18 hours 37° C., read-out: MIC",0.5 µg/mL
same,MIC,"Strep. 641848-C; Strep. 641848-C, nutrient agar 5% chocolated horse blood, 18 hours 37° C., read-out: MIC",1 µg/mL
same,MIC,[2],1 µg/mL
same,MIC,"Staph. aureus 152; Staphylococcus aureus, Staph. aureus 152, DST Agar, 10^4 organisms, 18 hours 37° C., read-out: MIC",1.25 µg/mL
same,MIC,"S. typhimurium S18; S. typhimurium S18, DST Agar, 10^4 organisms, 18 hours 37° C., read-out: MIC",> 80 µg/mL
same,MIC,"S. dublin S7; S. dublin S7, DST Agar, 10^4 organisms, 18 hours 37° C., read-out: MIC",> 80 µg/mL
same,MIC,"E. Coli NCTC 10418; NCTC10418, E. Coli NCTC 10418, DST Agar, 10^4 organisms, 18 hours 37° C., read-out: MIC",> 80 µg/mL
same,MIC,"Staph. aureus Oxford; Staph. aureus Oxford, DST Agar, 10^4 organisms, 18 hours 37° C., read-out: MIC",1.25 µg/mL
same,MIC,"Strep. dylgalactiae SPD1; Strep. dylgalactiae SPD1, DST Agar, 10^4 organisms, 18 hours 37° C., read-out: MIC",0.625 µg/mL
same,MIC,"Strep. agalactiae SPA1; Strep. agalactiae SPA1, DST Agar, 10^4 organisms, 18 hours 37° C., read-out: MIC",2.5 µg/mL
same,MIC,"Past. multocida PA2; Past. multocida PA2, DST Agar, 10^4 organisms, 18 hours 37° C., read-out: MIC",2.5 µg/mL
same,MIC,"Strep. uberis SPO1; Strep. uberis SPO1, DST Agar, 10^4 organisms, 18 hours 37° C., read-out: MIC",0.312 µg/mL
same,MIC,"[3]; Corynebacterium pyogenes CY1, DST Agar, 10^4 organisms, 18 hours 37° C., read-out: MIC",> 80 µg/mL
same,MIC,"Past. haemolytica PA5; Past. haemolytica PA5, DST Agar, 10^4 organisms, 18 hours 37° C., read-out: MIC",20 µg/mL
same,MIC,"[4]; NCTC8163, Erysipelothrix rhusiopathiae NCTC 8163, DST Agar, 10^4 organisms, 18 hours 37° C., read-out: MIC",40 µg/mL
same,MIC,"[5]; Strep. suis (group D) SPS11, DST Agar, 10^4 organisms, 18 hours 37° C., read-out: MIC",20 µg/mL
same,MIC,"E. Coli E1; E. Coli E1, DST Agar, 10^4 organisms, 18 hours 37° C., read-out: MIC",> 80 µg/mL
same,MIC,"Past. multocida PA1; Past. multocida PA1, DST Agar, 10^4 organisms, 18 hours 37° C., read-out: MIC",5 µg/mL
same,MIC,"Bord. bronchiseptica BO8; Bord. bronchiseptica BO8, DST Agar, 10^4 organisms, 18 hours 37° C., read-out: MIC",> 80 µg/mL
same,MIC,"Bord. bronchiseptica BO9; Bord. bronchiseptica BO9, DST Agar, 10^4 organisms, 18 hours 37° C., read-out: MIC",5 µg/mL
same,MIC,"Staph. aureus B4; Staph. aureus B4, DST Agar, 10^4 organisms, 18 hours 37° C., read-out: MIC",2.5 µg/mL
same,MIC,"[6]; M. suipneumoniae NCTC 10110, in vitro, 6 days 37° C., read-out: MIC",2.5 µg/mL
same,MIC,[7],0.05 µg/mL
same,MIC,M. bovis RCTC 10131,0.025 µg/mL
"C/C(=C\C(=O)OCc1cc([N+](=O)[O-])cc([N+](=O)[O-])c1)CC1OCC(CC2OC2C(C)C(C)O)C(O)C1O (stereo not drawn) [Example 6, 3,5-dinitrobenzyl monate A]",MIC,M. suipneumoniae TAM 6N,0.05 µg/mL
same,MIC,E. coli ESS; 18 h,1 µg/mL
same,MIC,"Strep. pneumoniae CN33; CN33, 18 h",0.25 µg/mL
same,MIC,Strep. 2733-B; 18 h,0.5 µg/mL
same,MIC,"[1]; Neisseria, 1502, 18 h",< 0.025 µg/mL
same,MIC,Strep. 641848-C; 18 h,0.5 µg/mL
same,MIC,[2],0.025 µg/mL
same,MIC,Staph. aureus 152; [8],0.312 µg/mL
same,MIC,"S. typhimurium S18; TYPHIMURIUM, 18 h",80 µg/mL
same,MIC,"S. dublin S7; S7, 18 h",> 80 µg/mL
same,MIC,"E. Coli NCTC 10418; NCTC10418, 18 h",80 µg/mL
same,MIC,Staph. aureus Oxford; 18 h,0.312 µg/mL
same,MIC,Strep. dylgalactiae SPD1; 18 h,0.312 µg/mL
same,MIC,"Strep. agalactiae SPA1; SPA1, 18 h",0.312 µg/mL
same,MIC,"Past. multocida PA2; PA2, 18 h",0.625 µg/mL
same,MIC,"Strep. uberis SPO1; SPO1, 18 h",0.07 µg/mL
same,MIC,"[3]; CY1, 18 h",> 80 µg/mL
same,MIC,"Past. haemolytica PA5; PA5, 18 h",5 µg/mL
same,MIC,[4]; [9],20 µg/mL
same,MIC,[5]; 18 h,20 µg/mL
same,MIC,E. Coli E1; 18 h,80 µg/mL
same,MIC,"Past. multocida PA1; PA1, 18 h",1.25 µg/mL
same,MIC,"Bord. bronchiseptica BO8; BO8, 18 h",40 µg/mL
same,MIC,"Bord. bronchiseptica BO9; BO9, 18 h",10 µg/mL
same,MIC,"Staph. aureus B4; B4, 18 h",0.312 µg/mL
same,MIC,[6],0.05 µg/mL
same,MIC,[7],≤ 0.01 µg/mL
same,MIC,M. bovis RCTC 10131,≤ 0.01 µg/mL
"C/C(=C\C(=O)OCc1cc([N+](=O)[O-])cc([N+](=O)[O-])c1C)CC1OCC(CC2OC2C(C)C(C)O)C(O)C1O (stereo not drawn) [Example 7, 3,5-dinitro-2-methylbenzyl monate A]",MIC,M. suipneumoniae TAM 6N,0.25 µg/mL
same,MIC,E. coli ESS; 18 h,2.5 µg/mL
same,MIC,"Strep. pneumoniae CN33; CN33, 18 h",0.5 µg/mL
same,MIC,Strep. 2733-B; 18 h,2.5 µg/mL
same,MIC,"[1]; Neisseria, 1502, 18 h",0.25 µg/mL
same,MIC,Strep. 641848-C; 18 h,1 µg/mL
same,MIC,[2],0.1 µg/mL
same,MIC,Staph. aureus 152; [8],0.625 µg/mL
same,MIC,"S. typhimurium S18; TYPHIMURIUM, 18 h",> 80 µg/mL
same,MIC,"S. dublin S7; S7, 18 h",> 80 µg/mL
same,MIC,"E. Coli NCTC 10418; NCTC10418, 18 h",> 80 µg/mL
same,MIC,Staph. aureus Oxford; 18 h,0.625 µg/mL
same,MIC,Strep. dylgalactiae SPD1; 18 h,0.625 µg/mL
same,MIC,"Strep. agalactiae SPA1; SPA1, 18 h",0.625 µg/mL
same,MIC,"Past. multocida PA2; PA2, 18 h",1.25 µg/mL
same,MIC,"Strep. uberis SPO1; SPO1, 18 h",0.156 µg/mL
same,MIC,"[3]; CY1, 18 h",> 80 µg/mL
same,MIC,"Past. haemolytica PA5; PA5, 18 h",5 µg/mL
same,MIC,[4]; [9],10 µg/mL
same,MIC,[5]; 18 h,10 µg/mL
same,MIC,E. Coli E1; 18 h,> 80 µg/mL
same,MIC,"Past. multocida PA1; PA1, 18 h",2.5 µg/mL
same,MIC,"Bord. bronchiseptica BO8; BO8, 18 h",40 µg/mL
same,MIC,"Bord. bronchiseptica BO9; BO9, 18 h",10 µg/mL
same,MIC,"Staph. aureus B4; B4, 18 h",0.625 µg/mL
same,MIC,[6],0.25 µg/mL
same,MIC,[7],≤ 0.1 µg/mL
same,MIC,M. bovis RCTC 10131,≤ 0.1 µg/mL
